Measurements reported in patent publication US20230346709A1, “TABLET CONTAINING VALSARTAN AND SACUBITRIL” (ALFRED E. TIEFENBACHER (GMBH & CO. KG), priority 2017, published 2023).

Assay: Storage stability of the tablets, solid form of the active ingredients by powder XRD
Type: physicochemical
Conditions: after storage in Alu-Alu blister, three months at 40° C./75% RH
Procedure: The XRD measurements were performed using X-ray source with Cu K-alpha radiation, Empyrean system (or equivalent), PIXcel detector, divergence slit 0.25° fixed, anti-scattering slit 0.5°, soller slits 2×0.02 radians, Nickel filter to suppress back ground and Cu K-beta components, current 40 mA, voltage 45 kV, 2° - 40 ° 2θ, spinning 30 RPM, step size 0.013° with total measurement time 1 Hr at room temperature. 1. Grind about two tablets to fine powder using Agate mortar and pestle gently. Prepare the sample (approx. 350 mg) using PANalytical sample preparation kit by ‘Back loading technique’. The sample surface should be smooth and in parallel to sample holder surface. Clean the outer edges of the holder with tissue paper to avoid sample contaminations. 2. Place the prepared sample holder carefully on the sample stage of the XRD instrument and analyze as per the above XRD method conditions at room temperature.

SMILES	change of solid form of the active ingredient in the tablets, powder XRD
CCOC(=O)[C@H](C)C[C@@H](Cc1ccc(-c2ccccc2)cc1)NC(=O)CCC(=O)O [sacubitril monosodium]	no polymorph conversion or amorphization
CCCCC(=O)N(Cc1ccc(-c2ccccc2-c2nnn[n-]2)cc1)[C@H](C(=O)[O-])C(C)C.CCOC(=O)[C@H](C)C[C@@H](Cc1ccc(-c2ccccc2)cc1)NC(=O)CCC(=O)[O-].O.[Na+].[Na+].[Na+] [LCZ696]	no crystallization
CCCCC(=O)N(Cc1ccc(-c2ccccc2-c2nnn[nH]2)cc1)[C@H](C(=O)O)C(C)C [valsartan disodium]	no crystallization
